Test results published in patent US9655363B2, “Microbiocides” (Syngenta Participations AG, priority 2013, dated 2017).

Experiments:
[1] = system: Thanatephorus Cucumeris (Rhizoctonia Solani); test: Thanatephorus cucumeris (Rhizoctonia solani) / liquid culture (foot rot, damping-off); format: cell-based; details: liquid culture (PDB), growth inhibition photometrically 3-4 days after application, read-out: disease control
Method: Fungicidal Activity Against Thanatephorus Cucumeris (Rhizoctonia Solani)/Liquid Culture (Foot Rot, Damping-Off) Mycelia fragments of a newly grown liquid culture of the fungus were directly mixed into nutrient broth (PDB potato dextrose broth). After placing a (DMSO) solution of the test compounds into a microtiter plate (96-well format), the nutrient broth containing the fungal material was added. The test plates were incubated at 24° C. and the inhibition of growth was determined photometrically 3-4 days after application. Compounds (from table T1) 1, 2, 4, 7, 8, 10, 11, 13, 14 and 17 at 200 ppm give at least 80% disease control in this test when compared to untreated control leaf disks under the same conditions, which show extensive disease development.

[2] = system: Blumeria Graminis f. sp. Tritici (Erysiphe Graminis f. sp. Tritici); test: Blumeria graminis f. sp. tritici / wheat / leaf disc preventative (powdery mildew on wheat); format: in vivo; details: foliar, wheat leaf disc cv. Kanzler, compared to untreated, 6-8 days after application, read-out: disease control
Method: Fungicidal Activity Against Blumeria Graminis f. sp. Tritici (Erysiphe Graminis f. sp. Tritici)/Wheat/Leaf Disc Preventative (Powdery Mildew on Wheat) Wheat leaf segments cv. Kanzler were placed on agar in a multiwell plate (24-well format) and sprayed with the formulated test compound diluted in water. The leaf disks were inoculated by shaking powdery mildew infected plants above the test plates 1 day after application. The inoculated leaf disks were incubated at 20° C. and 60% rh under a light regime of 24 h darkness followed by 12 h light/12 h darkness in a climate chamber and the activity of a compound was assessed as percent disease control compared to untreated when an appropriate level of disease damage appears on untreated check leaf segments (6-8 days after application).

[3] = system: Puccinia Recondita f. sp. Tritici; test: Puccinia recondita f. sp. tritici / wheat / leaf disc curative (brown rust); format: in vivo; details: foliar, 192 h, compared to untreated, 8 days after inoculation, read-out: disease control
Method: Fungicidal Activity Against Puccinia Recondita f. sp. Tritici/Wheat/Leaf Disc Curative (Brown Rust) Wheat leaf segments are placed on agar in multiwell plates (24-well format). The leaf disks are then inoculated with a spore suspension of the fungus. One day after inoculation the test solution is applied. After appropriate incubation the activity of a compound is assessed 8 dpi (days after inoculation) as curative fungicidal activity. Dose range: 200-22 ppm.

[4] = system: Mycosphaerella Graminicola (Septoria Tritici); test: Mycosphaerella graminicola (Septoria tritici) / liquid culture (Septoria blotch); format: cell-based; details: Zymoseptoria tritici, liquid culture (PDB), growth inhibition photometrically 4-5 days after application, read-out: disease control
Method: (§1) Fungicidal Activity Against Mycosphaerella Graminicola (Septoria Tritici)/Liquid Culture (Septoria Blotch) Conidia of the fungus from cryogenic storage were directly mixed into nutrient broth (PDB potato dextrose broth). After placing a (DMSO) solution of test compound into a microtiter plate (96-well format), the nutrient broth containing the fungal spores was added. The test plates were incubated at 24° C. and the inhibition of growth was determined photometrically 4-5 days after application.

[5] = system: Mycosphaerella Arachidis (Cercospora Arachidicola); test: Mycosphaerella arachidis (Cercospora arachidicola) / liquid culture (early leaf spot); format: cell-based; details: liquid culture (PDB), growth inhibition photometrically 4-5 days after application, read-out: disease control
Method: as §1, with “Arachidis (Cercospora Arachidicola)/Liquid” for “Graminicola (Septoria Tritici)/Liquid”, “(Early Leaf Spot)” for “(Septoria Blotch)”

[6] = system: Puccinia Recondita f. sp. Tritici; test: Puccinia recondita f. sp. tritici / wheat / leaf disc preventative (brown rust); format: in vivo; details: foliar, wheat leaf disc cv. Kanzler, compared to untreated, 7-9 days after application, read-out: disease control
Method: Fungicidal Activity Against Puccinia Recondita f. sp. Tritici/Wheat/Leaf Disc Preventative (Brown Rust) Wheat leaf segments cv. Kanzler were placed on agar in multiwell plates (24-well format) and sprayed with the formulated test compound diluted in water. The leaf disks were inoculated with a spore suspension of the fungus 1 day after application. The inoculated leaf segments were incubated at 19° C. and 75% rh under a light regime of 12 h light/12 h darkness in a climate cabinet and the activity of a compound was assessed as percent disease control compared to untreated when an appropriate level of disease damage appears in untreated check leaf segments (7-9 days after application).

OC(Cn1cncn1)(c1ccc(F)cc1)C1(c2ccc(Br)cn2)CCC1 (stereo not drawn) [Compound 17, 1-[1-(5-bromo-2-pyridyl)cyclobutyl]-1-(4-fluorophenyl)-2-(1,2,4-triazol-1-yl)ethanol]
≥ 80%: inhibition of growth at 200 ppm [1] | pest or weed control at 200 ppm [2] | pest or weed control at 200 ppm [3] | inhibition of growth at 200 ppm [4] | inhibition of growth at 200 ppm [5] | pest or weed control at 200 ppm [6]
